Patent US6534524B1, “Indazole compounds and pharmaceutical compositions for inhibiting protein kinases, and methods for their use” (Agouron Pharmaceuticals, Inc., priority 1999, dated 2003)
Where two headings read alike, the source gives them in different places. Marks after values point to notes of the source that are not given here.

Legend:
[1] = Human liver microsome (HLM) assay; format: in vitro ADME; settings: human liver microsomes, 5 μM test compound
Procedure: Human Liver Microsome (HLM) Assay Compound metabolism in human liver microsomes was measured by LC-MS analytical assay procedures as follows. […] (3 tubes per test compound-triplicate). […] The samples were then transferred to separate polypropylene microcentrifuge tubes and centrifuged at 14000 g for 10 min. (Fisher Micro […] M0017580). For each replicate (#1-3) at each timepoint (0 and 2 h), an aliquot sample of each test compound was combined into a single HPLC vial insert (6 total samples) for LC-MS analysis, which is described below.

[2] = target: unphosphorylated VEGF-R2Δ50 (FLVK) (Homo sapiens, UniProt P35968, DEL940-989/E990V); experiment: VEGF-R2 coupled spectrophotometric assay, unphosphorylated VEGF-R2Δ50 (FLVK); settings: FLVK Ki, Table 1
Sequence of unphosphorylated VEGF-R2Δ50 (FLVK) (P35968 with tags, fused parts or gaps DEL940-989/E990V limits assumed): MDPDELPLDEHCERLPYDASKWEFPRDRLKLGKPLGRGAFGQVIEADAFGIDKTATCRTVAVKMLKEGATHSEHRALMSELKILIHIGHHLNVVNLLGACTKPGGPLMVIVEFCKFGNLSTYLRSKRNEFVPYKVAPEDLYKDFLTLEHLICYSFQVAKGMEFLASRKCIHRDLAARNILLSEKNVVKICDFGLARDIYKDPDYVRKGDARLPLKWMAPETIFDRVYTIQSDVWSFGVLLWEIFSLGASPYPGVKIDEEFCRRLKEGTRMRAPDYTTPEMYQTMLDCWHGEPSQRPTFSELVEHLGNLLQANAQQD

[3] = Determination of inhibitor concentration in mouse plasma after intraperitoneal and oral dosing; format: in vivo
Outline: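 Plasma levels quantified by HPLC or LC-MS using a standard curve prepared in mouse plasma, following ethyl acetate extraction with internal standard and sodium hydroxide. Sampling at 0.5, 1, 4 h (ocular bleed) and 7 h (cardiac puncture) after oral or intraperitoneal dosing.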

[4] = system: human umbilical vein endothelial cells (HUVEC); experiment: HUVEC proliferation assay (VEGF-stimulated, MTT); format: cell-based; settings: Homo sapiens, HUVEC; read-out: HUVEC IC50
[5] = IP, 25 mg/kg, vehicle PEG400:H2O pH 2.3 60:40
[6] = PO, 50 mg/kg, vehicle PEG400:H2O pH 2.3 60:40
[7] = IP, 25 mg/kg, vehicle PEG400:H2O pH 2.3 30:70
[8] = PO, 50 mg/kg, vehicle PEG400:H2O pH 2.3 30:70
[9] = female, IP, 25 mg/kg, vehicle PEG400:H2O pH 2.3 30:70, read-out: Cmin (7 hr conc.)
[10] = female, PO, 50 mg/kg, vehicle PEG400:H2O pH 2.3 30:70, read-out: Cmin (7 hr conc.)
[11] = PO, 25 mg/kg, vehicle PEG400:H2O pH 2.3 30:70
[12] = female, PO, 25 mg/kg, vehicle PEG400:H2O pH 2.3 30:70, read-out: Cmin (7 hr conc.)

Row | AUClast [3, 7] | plasma half-life (T1/2) [3, 7] | AUClast [3, 8] | plasma half-life (T1/2) [3, 8] | concentration at 7 h [3, 9] | concentration at 7 h [3, 10] | SMILES | % remain (HLM, 2 h) [1] | other results
1 | – | – | – | – | – | – | O=C(c1cccc(NC(=O)c2cccc3[nH]ccc23)c1)c1ccc2c(/C=C/c3ccccc3)n[nH]c2c1 [Example 19(f), 6-[3-(Indol-4-ylcarboxamido)benzoyl]-3-E-styryl-1H-indazole] | 98% | Ki [2]: 0.18 nM
2 | – | – | – | – | – | – | CN(c1cccc(NC(=O)c2ccccc2)c1)c1ccc2c(/C=C/c3ccc4c(c3)OCO4)n[nH]c2c1 [Example 16(a), N-(3-{[3-(2Benzo[1,3]dioxol-5-yl-vinyl)-1H-indazol-6-yl]-methyl-amino}-phenyl)-benzanide] | 7* % | Ki [2]: 0.08 nM
3 | – | – | – | – | – | – | O=C(Nc1cccc(Nc2ccc3c(/C=C/c4ccccc4)n[nH]c3c2)c1)c1ccccc1 [Example 13, N-[3-(3-Styryl-1H-indazol-6-ylamino)-phenyl]-benzamide] | 69% | Ki [2]: 1.3 nM
4 | – | – | – | – | – | – | O=C(Nc1cccc(Oc2ccc3c(/C=C/c4ccco4)n[nH]c3c2)c1)c1ccccc1 [Example 30(c), 6-[3-Benzamidophenoxy]-3-E-[2-(fur-2-yl)ethenyl]-1H-indazole] | 54% | Ki [2]: 0.83 nM
5 | – | – | – | – | – | – | Cc1cccc(C(=O)Nc2cccc(N(C)c3ccc4c(/C=C/c5ccc6c(c5)OCO6)n[nH]c4c3)c2)c1 [Example 16(b), N-(3-{[3-(2-Benzo[1,3]dioxol-5-yl-vinyl)-1H-indazol-6-yl]-methyl-amino}-phenyl)-3-methyl-benzamide] | 50% | Ki [2]: 0.34 nM
6 | – | – | – | – | – | – | Cc1cnc(C(=O)Nc2cccc(C(=O)c3ccc4c(/C=C/c5ccccc5)n[nH]c4c3)c2)s1 [Example 19(d), 5-Methyl-thiazole-2-carboxylic Acid[3-(3-styryl-1H-indazole-6-carbonyl)-phenyl]-amide] | 36% | Ki [2]: 0.72 nM
7 | – | – | – | – | – | – | O=C(c1cccc(NC(=O)c2ccccn2)c1)c1ccc2c(/C=C/c3ccccc3)n[nH]c2c1 [Example 19(k), 6-[3-(Pyridin-2-ylcarboxamido)benzoyl]-3-E-styryl-1H-indazole] | 58% | AUClast [3, 5]: 428 ng·h/mL; Cmax [3, 5]: 149 ng/mL; plasma half-life (T1/2) [3, 5]: 2.2 h; AUClast [3, 6]: 19 ng·h/mL; Cmax [3, 6]: 8 ng/mL; plasma half-life (T1/2) [3, 6]: 2.2 h; concentration at 7 h ([3]; female, IP, 25 mg/kg, vehicle PEG400:H2O pH 2.3 60:40, read-out: Cmin (7 hr conc.)): 15 ng/mL; concentration at 7 h ([3]; female, PO, 50 mg/kg, vehicle PEG400:H2O pH 2.3 60:40, read-out: Cmin (7 hr conc.)): 4 ng/mL
8 | 546 ng·h/mL | 1.5 h | – | – | 2 ng/mL | – | C=C(C)CNC(=O)c1ccccc1Sc1ccc2c(/C=C/c3ccccn3)n[nH]c2c1 [Example 35(ee), 6-[2-(2-Methyl-2-propenylcarbamoyl)phenylsulfanyl]-3-E-[2-(pyridin-2-yl)ethenyl]-1H-indazole] | 13% | AUClast [3, 11]: 157 ng·h/mL; plasma half-life (T1/2) [3, 11]: 14.6 h; concentration at 7 h [3, 12]: 9 ng/mL
9 | 2640 ng·h/mL | 1.4 h | 5529 ng·h/mL | 1.4 h | 35 ng/mL | 33 ng/mL | CC(C)ONC(=O)c1ccccc1Sc1ccc2c(/C=C/c3ccccn3)n[nH]c2c1 [Example 35(k), 6-[2-(Isopropoxycarbamoyl)phenylsulfanyl]-3-E-[2-(pyridin-2-yl)ethenyl]-1H-indazole] | 14% | –
10 | – | – | – | – | – | – | Cn1ccnc1/C=N/NC(=O)c1ccccc1Sc1ccc2c(/C=C/c3ccccn3)n[nH]c2c1 [Example 36(a)] | 58% | AUClast [3, 11]: 605 ng·h/mL; plasma half-life (T1/2) [3, 11]: 1.5 h; concentration at 7 h [3, 12]: 17 ng/mL
11 | – | – | – | – | – | – | CCCONC(=O)c1ccccc1Sc1ccc2c(/C=C/c3ccccn3)n[nH]c2c1 [Example 35(t), 6-[2-(n-Propoxycarbamoyl)phenylsulfanyl]-3-E-[2-(pyridin-2-yl)ethenyl]-1H-indazole] | 7% | AUClast [3, 11]: 3199 ng·h/mL; plasma half-life (T1/2) [3, 11]: 1.1 h; concentration at 7 h [3, 12]: 41 ng/mL
12 | – | – | – | – | – | – | Cc1cc(C(=O)Nc2cc(C(=O)c3ccc4c(/C=C/c5ccccn5)n[nH]c4c3)ccc2C)n(C(C)C)n1 [Example 41(kk), 6-[3-((1-Isopropyl-3-methyl-1H-pyrazol-5-yl)carboxamido)-4-methylbenzoyl]-3-E-[2-(pyridin-2-yl)ethenyl]-1H-indazole] | 63% | AUClast [3, 11]: 11612 ng·h/mL; plasma half-life (T1/2) [3, 11]: 2.0 h; concentration at 7 h [3, 12]: 415 ng/mL
13 | 159 ng·h/mL | 1.2 h | 58 ng·h/mL | 1.2 h | 2 ng/mL | 1 ng/mL | O=C(Nc1nccs1)c1ccccc1Sc1ccc2c(/C=C/c3ccccn3)n[nH]c2c1 [Example 35(y), 6-[2-(Thiazol-2-ylcarbamoyl)phenylsulfanyl]-3-E-[2-(pyridin-2-yl)ethenyl]-1H-indazole] | 7% | –
14 | – | – | – | – | – | – | COc1ccc(CNC(=O)c2ccccc2Sc2ccc3c(/C=C/c4ccccn4)n[nH]c3c2)cc1 [Example 35(g)] | 53% | AUClast [3, 11]: 231 ng·h/mL; plasma half-life (T1/2) [3, 11]: 16.1 h; concentration at 7 h [3, 12]: 28 ng/mL
15 | – | – | – | – | – | – | CC(C)ONC(=O)c1cccc(F)c1Sc1ccc2c(/C=C/c3ccccn3)n[nH]c2c1 [Example 37(c), 6-[6-Fluoro-2-(isopropoxycarbamoyl)phenylsulfanyl]-3-E-[2-(pyridin-2-yl)ethenyl]-1H-indazole] | 21% | AUClast [3, 11]: 2419 ng·h/mL; plasma half-life (T1/2) [3, 11]: 1.2 h; concentration at 7 h [3, 12]: 9 ng/mL
16 | 9408 ng·h/mL | 3.2 h | 4744 ng·h/mL | 4.9 h | 465 ng/mL | 321 ng/mL | O=C(NC1CCC1)c1ccccc1Sc1ccc2c(/C=C/c3ccccn3)n[nH]c2c1 [Example 35(c), 6-[2-(Cyclobutylcarbamoyl)phenylsulfanyl]-3-E-[2-(pyridin-2-yl)ethenyl]-1H-indazole] | 17% | Cmax [3, 7]: 1976 ng/mL
17 | 59 ng·h/mL | 1.5 h | 26 ng·h/mL | – | 1 ng/mL | 2 ng/mL | Cc1ccc(CNC(=O)c2ccccc2Sc2ccc3c(/C=C/c4ccccn4)n[nH]c3c2)o1 [Example 35(h), 6-[2-((5-Methylfur-2-yl)methylcarbamoyl)phenylsulfanyl]-3-E-[2-(pyridin-2-yl)ethenyl]-1H-indazole] | 9% | Cmax [3, 8]: 7 ng/mL
18 | 2032 ng·h/mL | 1.4 h | 2445 ng·h/mL | 0.9 h | 24 ng/mL | 10 ng/mL | CCCNC(=O)c1ccccc1Sc1ccc2c(/C=C/c3ccccn3)n[nH]c2c1 [Example 35(a), 6-[2-(n-Propylcarbamoyl)phenylsulfanyl]-3-E-[2-(pyridin-2-yl)ethenyl]-1H-indazole] | 33% | Cmax [3, 7]: 2138 ng/mL; Cmax [3, 8]: 1780 ng/mL

Row | SMILES | AUClast [3, 7] | plasma half-life (T1/2) [3, 7] | AUClast [3, 8] | plasma half-life (T1/2) [3, 8] | concentration at 7 h [3, 9] | concentration at 7 h [3, 10] | % remain (HLM, 2 h) [1] | other results
19 | CCNC(=O)c1ccccc1Sc1ccc2c(/C=C/c3ccccn3)n[nH]c2c1 [Example 35(x), 6-[2-(Ethylcarbamoyl)phenylsulfanyl]-3-E-[2-(pyridin-2-yl)ethenyl]-1H-indazole] | 951 ng·h/mL | 3.2 h | 3516 ng·h/mL | 0.9 h | 48 ng/mL | 16 ng/mL | 37% | –
20 | O=C(NCC1CC1)c1ccccc1Sc1ccc2c(/C=C/c3ccccn3)n[nH]c2c1 [Example 35(v), 6-[2-(Cyclopropylmethyl-carbamoyl)phenylsulfanyl]-3-E-[2-(pyridin-2-yl)ethenyl]-1H-indazole] | 4865 ng·h/mL | 0.9 h | – | 1.0 h | 16 ng/mL | 26 ng/mL | 26% | AUC(0-t) ([3]; female, PO, 50 mg/kg, vehicle PEG400:H2O pH 2.3 30:70): > 2950 ng·h/mL; Cmax ([3]; female, PO, 50 mg/kg, vehicle PEG400:H2O pH 2.3 30:70, read-out: Cmax): > 2000 ng/mL
21 | C[C@@H]1C[C@H]1C(=O)Nc1cccc(C(=O)c2ccc3c(/C=C/c4ccccn4)n[nH]c3c2)c1 (racemic) [Example 41(h), 6-[3-((2-RS-trans-Methylcyclopropyl)carboxamido)benzoyl]-3-E-[2-(pyridin-2-yl)ethenyl]-1H-indazole] | 26911 ng·h/mL | 1.2 h | 4677 ng·h/mL | 0.7 h | 300 ng/mL | 7 ng/mL | 8% | Cmax [3, 7]: 16005 ng/mL; Cmax [3, 8]: 4080 ng/mL; IC50 [4]: 2 nM
